Measured values: patent US8410161B2, “Thioxanthone ring system derivatives” (National Defense Medical Center, priority 2010, dated 2013)

What was measured:
Type in all cases: cell-based
A3 cell lines = test: MTT assay, A3 cell lines (lung cancer stem cell)
Excerpt: Please to FIG. 4B, various cell viabilities of the A3 cell lines can be obtained through the MTT assay and illustrated in FIG. 4B while the compounds No. 1˜30 are used to treat A3 cell lines, wherein A3 cell lines are lung cancer stem cell.

[1] = MTT assay, HEL299 fibroblast; details: human
Excerpt: Please refer to FIG. 4C, various cell viabilities of the HEL299 cell lines can be obtained through the MTT assay while the compounds No. 1˜30 are used to treat HEL299 cell lines, wherein HEL299 cell lines are fibroblast.

A control cell lines = test: MTT assay, A control cell lines (lung cancer cell)
Excerpt: Please refer to Table 1 and FIGS. 4A-4C. According to a MTT assay (Table 1), various cell viabilities of the A control cell lines can be obtained and illustrated in FIG. 4A while the compounds No. 2˜30 are used to treat A control cell lines, wherein A control cell lines are lung cancer cell.

| Structure (SMILES) | cell viabilities of A3 cell lines (MTT assay) (A3 cell lines) | viability [1] | cell viabilities of A control cell lines (MTT assay) (A control cell lines) |
| --- | --- | --- | --- |
| O=c1c2ccccc2sc2c(Cl)c(Cl)ccc12 [No. 1, 3,4-dichloro-9H-thioxanthen-9-one] | 83.7 ± 6.22% | 68.5 ± 12% | – |
| CCSc1ccc2c(=O)c3ccccc3sc2c1Cl [No. 2, 4-Chloro-3-(ethylthio)-9H-thioxanthen-9-one] | 72.7 ± 2.60% | 34 ± 7.95% | 85.1 ± 2.74% |
| O=c1c2ccccc2sc2c(Cl)c(SC3CCCC3)ccc12 [No. 5, 4-Chloro-3-(cyclopentylthio)-9H-thioxanthen-9-one] | 107 ± 7.17% | 89.5 ± 13.7% | 108 ± 7.69% |
| Cc1ccccc1Sc1ccc2c(=O)c3ccccc3sc2c1Cl [No. 7, 4-Chloro-3-(o-tolylthio)-9H-thioxanthen-9-one] | 81.6 ± 4.98% | 91.1 ± 18.7% | 103 ± 2.86% |
| Cc1cccc(Sc2ccc3c(=O)c4ccccc4sc3c2Cl)c1 [No. 8, 4-Chloro-3-(m-tolylthio)-9H-thioxanthen-9-one] | 116 ± 1.49% | 74.8 ± 4.04% | 120 ± 1.51% |
| Cc1ccc(Sc2ccc3c(=O)c4ccccc4sc3c2Cl)cc1 [No. 9, 4-Chloro-3-(p-tolylthio)-9H-thioxanthen-9-one] | 115 ± 4.55% | 98.4 ± 12.8% | 119 ± 4.69% |
| Cc1ccc(C)c(Sc2ccc3c(=O)c4ccccc4sc3c2Cl)c1 [No. 11, 4-Chloro-3-(2,5-dimethylphenylthio)-9H-thioxanthen-9-one] | 96.9 ± 5.20% | 94.4 ± 10.1% | 105 ± 2.56% |
| Cc1ccc(Sc2ccc3c(=O)c4ccccc4sc3c2Cl)cc1C [No. 13, 4-Chloro-3-(3,4-dimethylphenylthio)-9H-thioxanthen-9-one] | 112 ± 1.86% | 112 ± 11.2% | 113 ± 5.86% |
| COc1ccccc1Sc1ccc2c(=O)c3ccccc3sc2c1Cl [No. 15, 4-Chloro-3-(2-methoxylphenylthio)-9H-thioxanthen-9-one] | 99.0 ± 3.41% | 73 ± 12.3% | 85.4 ± 9.66% |
| COc1ccc(Sc2ccc3c(=O)c4ccccc4sc3c2Cl)cc1 [No. 17, 4-Chloro-3-(4-methoxylphenylthio)-9H-thioxanthen-9-one] | 89.4 ± 1.88% | 109 ± 14.5% | 97.1 ± 8.74% |
| CCc1ccccc1Sc1ccc2c(=O)c3ccccc3sc2c1Cl [No. 18, 4-Chloro-3-(2-ethylphenylthio)-9H-thioxanthen-9-one] | 77.2 ± 5.23% | 104 ± 14.2% | 73.2 ± 10.2% |
| CCOc1cccc(Sc2ccc3c(=O)c4ccccc4sc3c2Cl)c1 [No. 19, 4-Chloro-3-(3-ethoxylphenylthio)-9H-thioxanthen-9-one] | 98.2 ± 4.79% | 90.3 ± 14.4% | 91.3 ± 1.74% |
| CC(C)c1ccc(Sc2ccc3c(=O)c4ccccc4sc3c2Cl)cc1 [No. 20, 4-Chloro-3-(4-isopropylphenylthio)-9H-thioxanthen-9-one] | 93.9 ± 6.97% | 110 ± 14.3% | 74.6 ± 11.2% |
| CC(C)c1ccccc1Sc1ccc2c(=O)c3ccccc3sc2c1Cl [No. 21, 4-Chloro-3-(2-isopropylphenylthio)-9H-thioxanthen-9-one] | 93.7 ± 6.01% | 107 ± 5.4% | 83.5 ± 12.6% |
| O=c1c2ccccc2sc2c(Cl)c(Sc3ccc(Br)cc3)ccc12 [No. 22, 3-(4-Bromophenylthio)-4-chloro-9H-thioxanthen-9-one] | 70.8 ± 3.86% | 66.1 ± 0.66% | 104 ± 1.89% |
| O=c1c2ccccc2sc2c(Cl)c(Sc3cccc(Cl)c3)ccc12 [No. 30, 4-Chloro-3-(3-chlorophenylthio)-9H-thioxanthen-9-one] | 92.2 ± 6.17% | 101 ± 3.7% | 97.7 ± 1.46% |
